Experimental findings from patent US20170073337A1, “DIHYDROTHIAZINE AND DIHYDROOXAZINE DERIVATIVES HAVING BACE1 INHIBITORY ACTIVITY” (Shionogi & Co., Ltd., priority 2014, published 2017) are described below.

One may read the IC50 as the concentration that inhibits the measured activity by half. The low end stands for higher potency, the high end for lower potency.

Holding throughout (assay type): in vitro ADME
Data set [1] deals with T1, CYP2D6 (Homo sapiens, UniProt P10635).
T1 construct: The commercially available pooled human liver microsomes are used as an enzyme resource; from tissue; host or cells: pooled human liver microsomes
T1 sequence (P10635 whole entry): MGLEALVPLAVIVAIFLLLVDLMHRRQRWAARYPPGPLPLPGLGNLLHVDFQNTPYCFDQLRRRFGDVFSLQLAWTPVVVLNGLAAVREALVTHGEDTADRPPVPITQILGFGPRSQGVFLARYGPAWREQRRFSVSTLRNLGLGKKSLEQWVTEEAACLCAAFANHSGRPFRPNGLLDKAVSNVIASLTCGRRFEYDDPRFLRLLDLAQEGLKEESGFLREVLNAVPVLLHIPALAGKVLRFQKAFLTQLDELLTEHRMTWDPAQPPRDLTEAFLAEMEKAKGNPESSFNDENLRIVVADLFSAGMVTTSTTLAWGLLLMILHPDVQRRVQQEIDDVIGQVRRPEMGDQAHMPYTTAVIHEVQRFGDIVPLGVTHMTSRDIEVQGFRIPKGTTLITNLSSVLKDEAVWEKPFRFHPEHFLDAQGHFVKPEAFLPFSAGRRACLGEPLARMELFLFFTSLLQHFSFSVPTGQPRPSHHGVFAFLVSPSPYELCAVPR
Description: CYP inhibition test (CYP2D6). Particulars: pooled human liver microsomes; dextromethorphan O-demethylation. In a few lines: (§1)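 Metabolite formation was quantified by LC/MS/MS: dextrorphan (2D6, 5 μmol/L dextromethorphan), terfenadine alcohol (3A4, 1 μmol/L terfenadine), 4′-hydroxymephenytoin (2C19, 50 μmol/L S-mephenytoin) and hydroxytolbutamide (2C9, 100 μmol/L tolbutamide). Reactions used NADPH-started pooled human liver microsomes (0.2 mg/mL) at 37 °C with compound at 1–20 μmol/L (four points). IC50 was calculated by logistic model relative to the DMSO control.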

Data set [2] has as its target T2, CYP2C9 (Homo sapiens, UniProt P11712).
T2 construct: The commercially available pooled human liver microsomes are used as an enzyme resource; from tissue; host or cells: pooled human liver microsomes
Description: CYP inhibition test (CYP2C9). Particulars: pooled human liver microsomes; tolbutamide methyl-hydroxylation. The procedure, abridged: as §1

The target in data set [3] is T3, P-gp (MDR1 expressing LLC-PK1 cells) (Homo sapiens, UniProt P08183).
T3 construct: host or cells: LLC-PK1
T3 sequence (P08183 whole entry): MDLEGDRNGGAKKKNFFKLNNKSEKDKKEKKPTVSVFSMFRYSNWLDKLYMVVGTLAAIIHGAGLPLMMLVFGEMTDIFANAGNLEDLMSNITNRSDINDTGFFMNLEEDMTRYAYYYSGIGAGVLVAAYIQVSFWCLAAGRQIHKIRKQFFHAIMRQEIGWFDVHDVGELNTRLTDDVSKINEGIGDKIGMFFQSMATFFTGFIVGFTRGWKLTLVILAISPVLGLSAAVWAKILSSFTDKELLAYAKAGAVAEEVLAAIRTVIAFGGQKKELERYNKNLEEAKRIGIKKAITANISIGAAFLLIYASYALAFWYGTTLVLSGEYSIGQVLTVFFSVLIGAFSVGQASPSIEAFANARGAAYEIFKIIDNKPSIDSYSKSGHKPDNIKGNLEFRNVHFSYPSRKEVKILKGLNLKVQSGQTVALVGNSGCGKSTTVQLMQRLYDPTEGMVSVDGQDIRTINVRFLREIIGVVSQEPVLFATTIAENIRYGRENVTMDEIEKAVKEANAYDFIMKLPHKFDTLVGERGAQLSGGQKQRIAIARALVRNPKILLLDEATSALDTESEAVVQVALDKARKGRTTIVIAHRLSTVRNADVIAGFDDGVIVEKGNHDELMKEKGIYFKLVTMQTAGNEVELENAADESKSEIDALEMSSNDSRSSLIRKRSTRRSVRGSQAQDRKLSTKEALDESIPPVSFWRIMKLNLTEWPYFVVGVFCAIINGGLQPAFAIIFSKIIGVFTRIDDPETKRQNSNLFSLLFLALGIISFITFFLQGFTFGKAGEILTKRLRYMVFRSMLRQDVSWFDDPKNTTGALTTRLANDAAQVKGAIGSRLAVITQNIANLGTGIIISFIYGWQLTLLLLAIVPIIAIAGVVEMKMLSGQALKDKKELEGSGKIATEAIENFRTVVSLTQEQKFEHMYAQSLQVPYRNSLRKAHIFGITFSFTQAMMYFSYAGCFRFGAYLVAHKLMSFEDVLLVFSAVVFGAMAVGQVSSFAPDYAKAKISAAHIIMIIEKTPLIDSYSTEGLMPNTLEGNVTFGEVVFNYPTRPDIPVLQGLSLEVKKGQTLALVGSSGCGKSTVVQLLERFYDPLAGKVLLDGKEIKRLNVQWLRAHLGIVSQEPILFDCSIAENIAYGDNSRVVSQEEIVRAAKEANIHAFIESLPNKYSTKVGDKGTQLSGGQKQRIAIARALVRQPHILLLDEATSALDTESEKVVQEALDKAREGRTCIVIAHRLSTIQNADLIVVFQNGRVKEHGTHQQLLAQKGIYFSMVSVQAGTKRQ
Description: P-gp substrate test. Particulars: net flux = Efflux Ratio in MDR1 expressing cells / Efflux Ratio in parent LLC-PK1 cells. Here is the method:
• 1. Cell line: • a. MDR/LLC-PK1 (Becton Dickinson) • b. LLC-PK1 (Becton Dickinson) • 2. Reference substrates: • a Digoxin (2 μM)
1. […] After incubation for designed time at 37° C., an aliquot (50 μL) of transport buffer in the donor and receiver side were collected. Assay was performed by duplicate or triplicate. 3. Reference substrate and the present invention in the aliquot was quantified by LC/MS/MS.
Pc(cm/sec)−Permeated amount (pmol)/area of cell membrane (cm2)/initial concentration (nM)/incubation time (sec)
The efflux ratio was calculated using the following equation:
Efflux Ratio=Basolateral-to-Apical Pe/Apical-to-Basolateral Pe
The net flux was calculated using the following equation
Net flux=Efflux Ratio in MDK1 expressing cells/Efflux Ratio in parent cells

T2 sequence (P11712 whole entry): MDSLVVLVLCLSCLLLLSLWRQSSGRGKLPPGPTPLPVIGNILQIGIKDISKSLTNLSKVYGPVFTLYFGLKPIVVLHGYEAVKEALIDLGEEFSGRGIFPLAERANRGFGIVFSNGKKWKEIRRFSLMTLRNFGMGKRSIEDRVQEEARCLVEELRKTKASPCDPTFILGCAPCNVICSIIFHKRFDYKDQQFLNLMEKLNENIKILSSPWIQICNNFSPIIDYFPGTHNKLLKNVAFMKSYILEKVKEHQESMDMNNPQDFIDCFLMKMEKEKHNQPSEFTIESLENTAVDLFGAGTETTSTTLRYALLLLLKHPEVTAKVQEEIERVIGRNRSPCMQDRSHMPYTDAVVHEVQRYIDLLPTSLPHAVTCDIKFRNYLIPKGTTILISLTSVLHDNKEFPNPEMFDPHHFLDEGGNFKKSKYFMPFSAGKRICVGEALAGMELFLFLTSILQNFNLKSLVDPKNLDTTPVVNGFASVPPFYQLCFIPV

`CO[C@H]1[C@@H](CF)OC(N)=N[C@]1(C)c1cc(NC(=O)c2ccc(F)cn2)ccc1F` [Compound I-25]: the 50% inhibitory concentration (IC50) in data set [1] and in data set [2] was at least 20 µM in each case. On to `Cc1nc(C(=O)Nc2ccc(F)c([C@@]3(C)N=C(N)O[C@H](C(F)(F)F)[C@@H]3C)c2)co1` [Compound I-32], for which the IC50 in data set [1] was at least 10 µM; in data set [2], at least 20 µM. `C[C@]1(c2cc(NC(=O)c3ccc(C#N)cn3)ccc2F)N=C(N)O[C@H](C(F)(F)C2CC2)[C@@H]1F` [Compound I-81] gave an IC50 in data set [2] of at least 10 µM.

Consider `CO[C@H]1[C@@H](CF)OC(N)=N[C@]1(C)c1cc(NC(=O)c2ccc(F)cn2)ccc1Cl` [Compound I-20], for which the 50% inhibitory concentration (IC50) in data set [1] and in data set [2] was at least 20 µM throughout.

On to `C[C@H]1SC(N)=N[C@](C)(c2cc(NC(=O)c3cnc(C(F)F)cn3)ccc2F)[C@H]1F` [Compound I-65], for which the “ER ratio (Cell: MDR1/LLC-PK1)” value in data set [3] stood at 1.1. On to `C[C@]1(c2cc(NC(=O)c3ccc(F)cn3)ccc2F)N=C(N)OCC12CC(F)(F)C2` [Compound I-45], for which the IC50 in data set [1] and in data set [2] was at least 20 µM each time. Consider `CC[C@H]1SC(N)=N[C@](C)(c2cc(NC(=O)c3ccc(F)cn3)ccc2F)[C@H]1F` [Compound I-70], for which the IC50 in data set [1] was at least 10 µM. For the compound `C[C@]1(c2cc(NC(=O)c3cnc(OCF)cn3)ccc2F)N=C(N)O[C@H](C(F)(F)C2CC2)[C@@H]1F` [Compound I-82], in data set [3], the “ER ratio (Cell: MDR1/LLC-PK1)” value is given as 0.96. For the compound `CO[C@H]1[C@@H](C)SC(N)=N[C@]1(C)c1cc(NC(=O)c2ccc(F)cn2)ccc1F` [Compound I-89], the IC50 in data set [1] and in data set [2] was at least 20 µM throughout. As for `C[C@H]1SC(N)=N[C@](C)(c2cc(NC(=O)c3coc(CF)n3)ccc2F)[C@H]1F` [Compound I-49], the half-maximal inhibitory concentration (IC50) in data set [1] was at least 20 µM; in data set [2], at least 10 µM. In the case of `C[C@]1(c2cc(NC(=O)c3ccc(OCF)cn3)ccc2F)N=C(N)O[C@H](C2(F)CC2)[C@@H]1F` [Compound I-101], in data set [3], the “ER ratio (Cell: MDR1/LLC-PK1)” value was 1.1.

In turn, `C[C@H]1SC(N)=N[C@](C)(c2cc(NC(=O)c3cnc(OCC4CC4)cn3)ccc2F)[C@H]1F` [Compound I-85] came in with an IC50 in data set [1] of at least 20 µM. Turning to `C[C@@H]1[C@@H](C(F)(F)F)OC(N)=N[C@]1(C)c1cc(NC(=O)c2ccc(C#N)cn2)ccc1F` [Compound I-27], the concentration for half-maximal inhibition (IC50) in data set [1] and in data set [2] was at least 20 µM each time. As to `CO[C@H]1[C@@H](CF)OC(N)=N[C@]1(C)c1cc(NC(=O)c2ccc(C#N)cn2)ccc1Cl` [Compound I-18], the IC50 in data set [1] and in data set [2] was at least 20 µM throughout. Take `CC#CCOc1cnc(C(=O)Nc2ccc(F)c([C@@]3(C)N=C(N)O[C@H](C(C)(F)F)[C@@H]3F)c2)cn1` [Compound I-76]: the “ER ratio (Cell: MDR1/LLC-PK1)” value in data set [3] is on record as 1. As to `CC[C@H]1SC(N)=N[C@](C)(c2cc(NC(=O)c3ccc(OCF)cn3)ccc2F)[C@H]1F` [Compound I-67], the “ER ratio (Cell: MDR1/LLC-PK1)” value in data set [3] came to 0.9. With `C[C@]1(c2cc(NC(=O)c3ccc(F)cn3)ccc2F)N=C(N)O[C@H](CF)[C@@H]1OCC(F)(F)F` [Compound I-11], the 50% inhibitory concentration (IC50) in data set [1] and in data set [2] was at least 10 µM in each case. For `COc1ccc(C(=O)Nc2ccc(F)c([C@@]3(C)N=C(N)S[C@H](C)[C@@H]3F)c2)nc1` [Compound I-50], the “ER ratio (Cell: MDR1/LLC-PK1)” value in data set [3] is recorded as 1.1. For the compound `C[C@H]1[C@H](C(F)(F)F)OC(N)=N[C@]1(C)c1cc(NC(=O)c2ccc(C#N)cn2)ccc1F` [Compound I-29], the half-maximal inhibitory concentration (IC50) in data set [1] and in data set [2] was at least 20 µM in each case. On to `C[C@H]1SC(N)=N[C@](C)(c2cc(NC(=O)c3ncc(OCC(F)(F)F)cn3)ccc2F)[C@H]1F` [Compound I-53], for which the IC50 in data set [1] is at least 20 µM. For the compound `CO[C@H]1[C@@H](C)SC(N)=N[C@]1(C)c1cc(NC(=O)c2ccc(C#N)cn2)ccc1F` [Compound I-88], the 50% inhibitory concentration (IC50) in data set [1] and in data set [2] was at least 20 µM throughout. As to `C[C@H]1SC(N)=N[C@](C)(c2cc(NC(=O)c3ccc(F)cn3)ccc2F)C12CC(F)(F)C2` [Compound I-63], the IC50 in data set [2] was at least 10 µM.
